Data from patent publication US9957289B2, “Compounds and methods for treating bacterial infections” (Washington University, priority 2013, dated 2018).
Converted amounts (≈) assume the structure as drawn. “Also recorded” adds a separate entry of the source.

What was measured:
[1] = tested on: UPEC biofilm formation; assay: Biofilm assay; format: cell-based, Escherichia coli; settings: 1 mM
Experimental: (§1) The FimH-mannose interaction was further investigated in an effort to develop potential ligand-based antagonists of UTIs. […] The non-reducing Man4 anchors into the mannose-binding pocket while the GlcNAc folds over Thr51 allowing specific interactions with a hydrophobic tyrosine gate. Heptyl mannoside mimics the GlcNAc tail of oligomannose-3 and extends it further to increase interactions outside the binding pocket resulting in high affinity binding (Kd=5 nM). Based on the high affinity of heptyl mannose for FimH, the ability of heptyl mannose to reduce bacterial infection in our mouse model of UTI was tested. First, biofilm formation as a surrogate for IBCs formed in the bladder was evaluated. […] Thus, UPEC strain UTI89 was incubated with heptyl mannose prior to inoculation into the bladders of mice.
UTI89 was grown in LB broth in wells of PVC microtiter plates at 23° C. in the presence of individual mannosides at varying concentrations. After 48 h of growth, wells were rinsed with water and stained with crystal violet for quantification as described. For biofilm disruption activity in PVC plates, UTI89 was grown in LB broth in wells of PVC microtiter plates at 23° C. After 24 h of growth, mannoside was added and biofilms were grown for an additional 16 h. Wells were then rinsed, stained with crystal violet and quantified. […]

[2] = biological target: T1, FimH (Escherichia coli, UniProt P08191); assay: Binding affinity to FimH; parameters: species or system E. coli
T1 construct: endogenous in cells; host or cells: type 1 piliated uropathogenic E. coli (UPEC)
Experimental: as §1

[3] = tested on: UTI89; assay: Mouse model of acute UTI, bladder bacterial CFU after UTI89 infection; format: in vivo, Escherichia coli; settings: for total bacterial CFUs in the bladder: mice, 6 hpi
Experimental: The efficacy of in vivo mannoside treatment was evaluated after orally dosing animals with 50 mg/kg of mannosides ZFH-4269 (FIG. 1A), ZFH-5254 (FIG. 1B) and ZFH-5240 (FIG. 1C) or DMSO or PBS 30 min prior to infecting with UTI89. At 6 hours post-infection (hpi) the bladders were removed and total bacterial CFUs were quantitated. […] Next, analogs of 254 were evaluated in the same mouse model of urinary tract infection. Animals were orally dosed with 25 mg/kg of mannosides ZFH-4269 (FIG. 2A), 1CJ68 (FIG. 2B) and 1CJ70 (FIG. 2C) in 10% cyclodextrin or 10% cyclodextrin 30 min prior to infecting with UT189.
The efficacy of in vivo mannoside treatment was evaluated after orally dosing animals with 25 mg/kg of mannosides ZFH269, Prodrug FIM-4269, ZFH-5254, and ZFH-5240 in 10% cyclodextrin or 10% cyclodextrin 30 min prior to infecting with UTI89. At 6 hours post-infection (hpi) the bladders were removed and total bacterial CFUs were quantitated. […] Next, several different prodrugs were evaluated in the same mouse model of urinary tract infection. Animals were orally dosed with 25 mg/kg of mannosides ZFH-4269, prodrug FIM-1233 (FIG. 8B), prodrug FIM-6123 (FIG. 8C) and prodrug 269 in 10% cyclodextrin or 10% cyclodextrin 30 min prior to infecting with UT189.
as §1
Bacteria were grown under type 1 pili-inducing conditions (2×24 h at 37° C. statically in LB). The bacteria were harvested and resuspended to an OD600 of 0.5 in PBS. Eight-week-old C3H/HeN (Harlan) female mice were anesthetized by inhalation of isoflurane and infected via transurethral catheterization with […] of the bacterial suspension, resulting in 1-2×10^7 inoculum. At 6 hpi, mice were sacrificed by cervical dislocation under anesthesia and the bladders were immediately harvested and processed as described below. All animal studies using mice were approved by the Animal Studies Committee of Washington University (Animal Protocol Number 20100002).
Mannoside ZFH-2056 was administered either IP (5 mg/kg) or orally (100 mg/kg) 30 min prior to inoculation with UTI89. To enumerate the bacteria present, mice were sacrificed at 6 hpi and bladders were aseptically removed and homogenized in 1 ml PBS, serially diluted and plated onto LB agar plates. CFU was enumerated after 16 h of growth at 37° C.

[4] = Mouse oral PK, mannoside concentration in urine; format: in vivo; settings: mice, 50 mg/kg oral
Experimental: Compounds ZFH-4269 (FIG. 6A), ZFH-5254 (FIG. 6B), ZFH5240 (FIG. 6C), and a Prodrug were dosed at 50 mg/kg and plasma and urine samples were taken at 1, 3, 6 and 8 hours after dosing. […] Taken together, the high oral bioavailability and in vivo efficacy observed in animal studies support mannosides as promising therapeutic candidates for UTI treatment/prevention.
For intraperitoneal dosing, 50 μl of a 2 mg/ml (5 mg/kg) or 4 mg/ml (10 mg/kg) solution of ZFH-2056 in PBS was injected into the peritoneal cavity of the mouse. For oral dosing, 100 μl of a 20 mg/ml (100 mg/kg) solution of ZFH-2056 in 8% DMSO was inoculated with a gavage needle into the mouse stomach. Urine was collected at 30 min, 1, 2, 3, 4, 6, and 8 h post-treatment. An equal volume of 10 μM internal standard (ZFH-2050) was added to the urine. Mannosides were extracted from the urine by loading on C18 columns (100 mg, Waters), washing with 30% methanol, and eluting with 60% methanol. Vacuum-concentrated eluates were analyzed using liquid chromatography-mass spectrometry system30 with a lower heated capillary temperature of 190° C. and a gradiert as follows: Solvent B (80% acetonitrile in 0.1% formic acid) was held constant at 5% for 5 minutes, increased to 44% B by 45 minutes, and then to a 95% B by 65 minutes. SRM mode quantification was performed with collision gas energy of 30% for the following MS/MS transitions (precursor m/z/product m/z): compound ZFH-2056, 447/285; compound ZFH-2050, 390/228. Absolute quantification was achieved by comparison to a calibration curve.

[5] = biological target: T1, FimH; assay: Hemagglutination inhibition (HAI) assay, guinea pig red blood cells; format: cell-based, E. coli; settings: concentration inhibiting >90% hemagglutination of guinea pig red blood cells
Experimental: FIG. 15 depicts the hemagglutination assay (HA) used to assess the compounds' ability to block FimH mediated binding. The HAI titer quantitatively measure the effect of inhibitors on blocking the FimH-mediated hemagglutination (HA) of guinea pig red blood cell infected with E. coli.
In some embodiments, activity of the compound is measured using hemmagglutination titer of guinea pig red blood cells. Hemagglutination of guinea pig red blood cells by type1 piliated UPEC is dependent upon FimH mannose binding ability and serial dilutions allow a quantitative analysis.
Hemagglutination assays for mannose-sensitive agglutination of guinea pig red blood cells were performed as previously described.

[6] = Rat pharmacokinetics, IV and PO; format: in vivo
Experimental: Mannoside compounds FIM-4269, FIM-5240, FIM-5254, FIM-1CJ82 and FIM-1CJ66 (FIG. 3) were evaluated for pharmacokinetics in the rat. Mannosides were dose IV at 3 mg/kg and PO at 10 mg/kg. Urine and plasma were collected at 15 min, 30 min, 1 hour, 2 hours, 4 hours and 8 hours.

[7] = tested on: PBC-1; assay: Growth curve / MIC in TMP-SMZ, PBC-1; format: cell-based; settings: Escherichia coli; PBC-1, growth curves in TMP-SMZ; read-out: Minimum Inhibition Concentration (MIC)
Experimental: (§2) Mice were IP treated with 6 30 min prior to inoculation with bacteria and compared to a control group of untreated animals. After inoculation with UTI89 or PBC-1, bacterial CFUs were quantified at 6 hpi.
Mannoside ZFH-2056 was added at 100 μM. Growth curves were performed in a 96-well plate at 37° C. with A600 readings taken every 30 min for 8 h.

[8] = tested on: UTI89; assay: microbe, parasite or virus in culture; settings: Escherichia coli
[9] = mice, after 3 days of 54 μg/ml TMP and 270 μg/ml SMZ in drinking water
Experimental: as §2
Water was changed daily for 3 days prior to inoculation with UTI89.

[10] = tested on: UTI89; assay: UTI89 biofilm formation in urine under flow; format: cell-based, Escherichia coli; settings: 1% in urine under flow
Text: To investigate the potential therapeutic effects of mannosides on CAUTI, we first assessed the inhibitory effects of methyl-a-D-mannopyranoside (methyl mannose), on UTI89 biofilm formation in urine under flow.

T1 sequence (P08191 22-300): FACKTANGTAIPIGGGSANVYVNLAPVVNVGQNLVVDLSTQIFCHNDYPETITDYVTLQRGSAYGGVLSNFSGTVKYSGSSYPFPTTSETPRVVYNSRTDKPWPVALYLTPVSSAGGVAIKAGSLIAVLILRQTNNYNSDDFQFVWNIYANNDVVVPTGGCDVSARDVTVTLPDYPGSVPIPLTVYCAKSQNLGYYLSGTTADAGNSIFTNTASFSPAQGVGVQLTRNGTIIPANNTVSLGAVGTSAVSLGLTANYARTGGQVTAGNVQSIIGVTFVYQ

CCCCCCCO[C@H]1O[C@H](CO)[C@@H](O)[C@H](O)[C@@H]1O [Heptyl mannoside]
UPEC biofilm formation in vitro [1]: inhibited UPEC biofilm formation | Kd [2]: 5 nM | virulence in mouse model of UTI ([3]; UTI89 incubated with 5 mM compound prior to inoculation into bladders, 6 hours post-infection): significant attenuation of virulence

CNC(=O)c1cccc(-c2ccc([C@@H](O)C3OC(CO)C(O)C(O)C3O)c(C)c2)c1 (single isomer, unassigned) [Example 18A]
detectability in urine ([4]; samples at 1, 3, 6 and 8 hours): detectable in the urine out to 8 hours post-treatment | level of concentration in the urine ([4]; within a 6-hour period): consistently maintained a high level of concentration in the urine | HAI Titer EC>90 [5]: 0.031 µM | total bacterial CFUs in the bladder ([3]; 25 mg/kg oral in 10% cyclodextrin 30 min prior to infecting with UTI89): drop in bacterial counts | total bacterial CFUs in the bladder ([3]; 50 mg/kg oral 30 min prior to infecting with UTI89, vs DMSO or PBS, listed as 240, 50 mg/kg): reduced bacterial titers in the bladder relative to DMSO and PBS | total bacterial CFUs in the bladder ([3]; 50 mg/kg oral 30 min prior to infecting with UTI89, vs DMSO or PBS, listed as ZFH-5240, 50 mg/kg): drop in bacterial counts | time plasma concentration remained above the limit of detection ([6]; IV 3 mg/kg): 2.5 h | mean plasma concentration / PK after IV dose ([6]; IV 3 mg/kg, listed as FIM-5240, 3 mg/kg): the highest relative to the other 4 mannosides; also recorded: best PK | pharmacokinetics after PO dose ([6]; PO 10 mg/kg): best pharmacokinetics relative to the other mannosides | time at which plasma concentration fell below the limit of detection ([6]; PO 10 mg/kg): 2 h

Cc1cc(NS(=O)(=O)c2ccc(N)cc2)no1 [SMZ, Sulfamethoxazole]
MIC [7]: 1280 µg/mL (≈ 5050 µM) | MIC [8]: 0.25 µg/mL (≈ 0.987 µM)

COc1cc(Cc2cnc(N)nc2N)cc(OC)c1OC [TMP, Trimethoprim]
TMP concentration in urine [9]: 9.95 ± 4.36 mg/mL | MIC [7]: 256 µg/mL (≈ 882 µM) | MIC [8]: 0.05 µg/mL (≈ 0.172 µM)

CO[C@H]1O[C@H](CO)[C@@H](O)[C@H](O)[C@@H]1O [methyl mannose, methyl-a-D-mannopyranoside]
biofilm-adherent cells ([10]; p=0.0012 vs untreated): significantly reduced | biofilm biomass ([10]; p=0.0022 vs untreated): significantly reduced
